Laboratory results from US20230295118A1 (EnhancedBio Inc., priority 2022, published 2023).
Read-outs that look alike come from different tables or passages of the source.

Columns and labels:
Type in all cases: cell-based
[1] = system: mantle cell lymphoma cell (Mino or JeKo-1); test: Antiproliferative effect, MTS cell viability assay
How it was run: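 MTS read-out (formazan absorbance at 490 nm) after 72 h exposure of Mino cells to 0–1 μM compound (0.0001, 0.001, 0.01, 0.1, 1 μM). Palbociclib and abemaciclib served as positive controls.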

CDK6 = target: T1, CDK6 (Homo sapiens, UniProt Q00534); test: CDK6 degradation (DC50, Dmax)
T1 construct: endogenous in cells

CDK4 = target: T2, CDK4 (Homo sapiens, UniProt P11802); test: CDK4 degradation (DC50, Dmax)
T2 construct: endogenous in cells

[2] = 72 h, mantle cell lymphoma cell (Mino or JeKo-1), MTS assay, read-out: IC50 (anti-proliferation)
[3] = Mino cells; 0-1 μM; 72 h; result in words

T2 sequence (P11802 whole entry): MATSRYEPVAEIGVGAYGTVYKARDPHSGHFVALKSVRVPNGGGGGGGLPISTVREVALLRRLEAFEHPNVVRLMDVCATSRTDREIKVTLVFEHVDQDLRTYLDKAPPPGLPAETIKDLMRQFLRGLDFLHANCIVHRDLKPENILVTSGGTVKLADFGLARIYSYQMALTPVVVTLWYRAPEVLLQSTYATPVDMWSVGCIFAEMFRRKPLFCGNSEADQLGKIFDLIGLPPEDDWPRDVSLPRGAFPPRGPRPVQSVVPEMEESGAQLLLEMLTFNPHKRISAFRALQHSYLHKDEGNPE
T1 sequence (Q00534 whole entry): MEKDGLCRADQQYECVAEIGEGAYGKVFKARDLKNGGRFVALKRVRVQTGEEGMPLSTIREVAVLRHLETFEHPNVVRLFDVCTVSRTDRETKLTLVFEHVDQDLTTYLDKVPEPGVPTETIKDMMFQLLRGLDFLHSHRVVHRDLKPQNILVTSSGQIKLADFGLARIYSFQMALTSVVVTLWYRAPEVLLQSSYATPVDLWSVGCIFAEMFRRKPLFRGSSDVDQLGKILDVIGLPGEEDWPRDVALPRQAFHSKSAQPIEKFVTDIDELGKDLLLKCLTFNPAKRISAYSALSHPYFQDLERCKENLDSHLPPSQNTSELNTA

Row | Structure (SMILES) | IC50 [1, 2] | DC50 (CDK6) | Dmax (CDK6) | DC50 (CDK4) | Dmax (CDK4) | inhibition of cell proliferation of Mino cells [1, 3] | IC50 ([1]; mantle cell lymphoma cell (Mino or JeKo-1); MTS assay, 72 h; read-out: IC50 (anti-proliferation)) | Dmax CDK6 (CDK6) | Dmax CDK4 (CDK4)
1 | CC(=O)c1c(C)c2cnc(Nc3ccc(N4CCN(C5CCN(C(=O)N6CCC(CCN7CCN(c8ccc9c(c8)C(=O)N(C8CCC(=O)NC8=O)C9=O)CC7)CC6)CC5)CC4)cn3)nc2n(C2CCCC2)c1=O (centres unmarked) [Compound 87, 5-(4-(2-(1-(4-(4-(6-((6-acetyl-8-cyclopentyl-5-methyl-7-oxo-7,8-dihydropyrido[2,3-d]pyrimidin-2-yl)amino)pyridin-3-yl)piperazin-1-yl)piperidine-1-carbonyl)piperidin-4-yl)ethyl)piperazin-1-yl)-2-(2,6-dioxopiperidin-3-yl) isoindoline-1,3-dione] | 0.05 to 0.2 µM | 0.05 to 0.2 µM | > 60% | 0.05 to 0.2 µM | > 60% | – | – | – | –
2 | CC(=O)c1c(C)c2cnc(Nc3ccc(N4CCN(C5CCN(C(=O)N6CCC(N7CCN(c8ccc9c(c8)C(=O)N(C8CCC(=O)NC8=O)C9=O)CC7)CC6)CC5)CC4)cn3)nc2n(C2CCCC2)c1=O (centres unmarked) [Compound 88, 5-(4-(1-(4-(4-(6-((6-acetyl-8-cyclopentyl-5-methyl-7-oxo-7,8-dihydropyrido[2,3-d]pyrimidin-2-yl)amino)pyridin-3-yl)piperazin-1-yl)piperidine-1-carbonyl)piperidin-4-yl)piperazin-1-yl)-2-(2,6-dioxopiperidin-3-yl) isoindoline-1,3-dione] | > 0.2 µM | > 0.2 µM | > 50% | > 0.2 µM | > 60% | – | – | – | –
3 | CC(=O)c1c(C)c2cnc(Nc3ccc(N4CCN(CC5CCN(C(=O)N6CCC(N7CCN(c8ccc9c(c8)C(=O)N(C8CCC(=O)NC8=O)C9=O)CC7)CC6)CC5)CC4)cn3)nc2n(C2CCCC2)c1=O (centres unmarked) [Compound 89, 5-(4-(1-(4-((4-(6-((6-acetyl-8-cyclopentyl-5-methyl-7-oxo-7,8-dihydropyrido[2,3-d]pyrimidin-2-yl)amino)pyridin-3-yl)piperazin-1-yl)methyl)piperidine-1-carbonyl)piperidin-4-yl)piperazin-1-yl)-2-(2,6-dioxopiperidin-3-yl)isoindoline-1,3-dione] | 0.05 to 0.2 µM | > 0.2 µM | > 60% | 0.05 to 0.2 µM | > 60% | – | – | – | –
4 | Cc1nc2c(F)cc(-c3nc(Nc4ccc(CN5CCN(CCNc6ccc7c(c6)C(=O)N(C6CCC(=O)NC6=O)C7)CC5)cn4)ncc3F)cc2n1C(C)C (centres unmarked) [Compound 91, 3-(6-((2-(4-((6-((5-fluoro-4-(4-fluoro-1-isopropyl-2-methyl-1H-benzo[d]imidazol-6-yl)pyrimidin-2-yl)amino)pyridin-3-yl)methyl)piperazin-1-yl)ethyl)amino)-1-oxoisoindolin-2-yl)piperidine-2,6-dione] | < 0.05 µM | < 0.05 µM | > 80% | < 0.05 µM | > 80% | – | – | – | –
5 | Cc1nc2c(F)cc(-c3nc(Nc4ccc(CN5CCN(CCNc6cccc7c6C(=O)N(C6CCC(=O)NC6=O)C7=O)CC5)cn4)ncc3F)cc2n1C(C)C (centres unmarked) [Compound 92, 2-(2,6-dioxopiperidin-3-yl)-4-((2-(4-((6-((5-fluoro-4-(4-fluoro-1 isopropyl-2-methyl-1H-benzo[d]imidazol-6-yl)pyrimidin-2-yl)amino)pyridin-3-yl)methyl)piperazin-1-yl)ethyl)amino) isoindoline-1,3-dione] | < 0.05 µM | < 0.05 µM | > 80% | 0.05 to 0.2 µM | > 80% | dose-dependent inhibition of cell proliferation | – | – | –
6 | Cc1nc2c(F)cc(-c3nc(Nc4ccc(CN5CCN(CCNc6cccc7c6CN(C6CCC(=O)NC6=O)C7=O)CC5)cn4)ncc3F)cc2n1C(C)C (centres unmarked) [Compound 93] | – | 0.05 to 0.2 µM | – | 0.05 to 0.2 µM | – | – | < 0.05 µM | A (A: >80%) | A (A: >80%)
7 | Cc1nc2c(F)cc(-c3nc(Nc4ccc(CN5CCN(CC6CN(c7ccc8c(c7)CN(C7CCC(=O)NC7=O)C8=O)C6)CC5)cn4)ncc3F)cc2n1C(C)C (centres unmarked) [Compound 95, 3-(5-(3-((4-((6-((5-fluoro-4-(4-fluoro-1-isopropyl-2-methyl-1H-benzo[d]imidazol-6-yl)pyrimidin-2-yl)amino)pyridin-3-yl)methyl)piperazin-1-yl)methyl)azetidin-1-yl)-1-oxoisoindolin-2-yl)piperidine-2,6-dione] | < 0.05 µM | < 0.05 µM | > 80% | < 0.05 µM | > 80% | – | – | – | –
8 | Cc1nc2c(F)cc(-c3nc(Nc4ccc(CN5CCN(C6CN(c7ccc(C(=O)NC8CCC(=O)NC8=O)cc7)C6)CC5)cn4)ncc3F)cc2n1C(C)C (centres unmarked) [Compound 96, N-(2,6-dioxopiperidin-3-yl)-4-(3-(4-((6-((5-fluoro-4-(4-fluoro-1-isopropyl-2-methyl-1H-benzo[d]imidazol-6-yl)pyrimidin-2-yl)amino)pyridin-3-yl)methyl)piperazin-1-yl)azetidin-1-yi)benzamide] | < 0.05 µM | < 0.05 µM | > 80% | < 0.05 µM | > 80% | – | – | – | –
9 | Cc1nc2c(F)cc(-c3nc(Nc4ccc(CN5CCN(C6CN(c7ccc8c(c7)CN(C7CCC(=O)NC7=O)C8=O)C6)CC5)cn4)ncc3F)cc2n1C(C)C (centres unmarked) [Compound 97, 3-(5-(3-(4-((6-((5-fluoro-4-(4-fluoro-1-isopropyl-2-methyl-1H-benzo[d]imidazol-6-yl)pyrimidin-2-yl)amino)pyridin-3-yl)methyl)piperazin-1-yl)azetidin-1-yl)-1-oxoisoindolin-2-yl)piperidine-2,6-dione] | < 0.05 µM | < 0.05 µM | > 80% | < 0.05 µM | > 80% | – | – | – | –
10 | Cc1nc2c(F)cc(-c3nc(Nc4ccc(CN5CCN(C6CN(c7cccc8c7C(=O)N(C7CCC(=O)NC7=O)C8=O)C6)CC5)cn4)ncc3F)cc2n1C(C)C (centres unmarked) [Compound 98, 2-(2,6-dioxopiperidin-3-yl)-4-(3-(4-((6-((5-fluoro-4-(4-fluoro-1 isopropyl-2-methyl-1H-benzo[d]imidazol-6-yl)pyrimidin-2-yl)amino)pyridin-3-yl)methyl)piperazin-1-yl)azetidin-1-yl)isoindoline-1,3-dione] | 0.05 to 0.2 µM | 0.05 to 0.2 µM | > 80% | 0.05 to 0.2 µM | > 80% | – | – | – | –
11 | Cc1nc2c(F)cc(-c3nc(Nc4ccc(CN5CCN(C6CN(c7cccc8c7CN(C7CCC(=O)NC7=O)C8=O)C6)CC5)cn4)ncc3F)cc2n1C(C)C (centres unmarked) [Compound 99, 3-(4-(3-(4-((6-((5-fluoro-4-(4-fluoro-1-isopropyl-2-methyl-1H-benzo[d]imidazol-6-yl)pyrimidin-2-yl)amino)pyridin-3-yl)methyl)piperazin-1-yl)azetidin-1-yl)-1-oxoisoindolin-2-yl)piperidine-2,6-dione] | 0.05 to 0.2 µM | 0.05 to 0.2 µM | > 60% | 0.05 to 0.2 µM | > 60% | – | – | – | –
12 | Cc1nc2c(F)cc(-c3nc(Nc4ccc(CN5CCN(CCCNc6cccc7c6C(=O)N(C6CCC(=O)NC6=O)C7=O)CC5)cn4)ncc3F)cc2n1C(C)C (centres unmarked) [Compound 100, 2-(2,6-dioxopiperidin-3-yl)-4-((3-(4-((6-((5-fluoro-4-(4-fluoro-1 isopropyl-2-methyl-1H-benzo[d]imidazol-6-yl)pyrimidin-2-yl)amino)pyridin-3-yl)methyl)piperazin-1-yl)propyl)amino) isoindoline-1,3-dione] | < 0.05 µM | 0.05 to 0.2 µM | > 80% | 0.05 to 0.2 µM | > 80% | dose-dependent inhibition of cell proliferation | – | – | –
13 | Cc1nc2c(F)cc(-c3nc(Nc4ccc(CN5CCN(c6cccc7c6C(=O)N(C6CCC(=O)NC6=O)C7=O)CC5)cn4)ncc3F)cc2n1C(C)C (centres unmarked) [Compound 101, 2-(2,6-dioxopiperidin-3-yl)-4-(4-((6-((5-fluoro-4-(4-fluoro-1-isopropyl-2-methyl-1H-benzo[d]imidazol-6-yl)pyrimidin-2-yl)amino)pyridin-3-yl)methyl)piperazin-1-yl)isoindoline-1,3-dione] | 0.05 to 0.2 µM | 0.05 to 0.2 µM | > 80% | 0.05 to 0.2 µM | > 60% | – | – | – | –
14 | CC(=O)c1c(C)c2cnc(Nc3ccc(N4CCN(C5CN(c6ccc(C(=O)NC7CCC(=O)NC7=O)cc6)C5)CC4)cn3)nc2n(C2CCCC2)c1=O (centres unmarked) [Compound 102, 4-(3-(4-(6-((6-acetyl-8-cyclopentyl-5-methyl-7-oxo-7,8-dihydropyrido[2,3-d]pyrimidin-2-yl)amino)pyridin-3-yl)piperazin-1-yl)azetidin-1-yl)-N-(2,6-dioxopiperidin-3-yl)benzamide] | 0.05 to 0.2 µM | 0.05 to 0.2 µM | > 60% | 0.05 to 0.2 µM | > 80% | – | – | – | –
15 | CC(=O)c1c(C)c2cnc(Nc3ccc(N4CCN(CCCN(C)c5cccc6c5C(=O)N(C5CCC(=O)NC5=O)C6=O)CC4)cn3)nc2n(C2CCCC2)c1=O (centres unmarked) [Compound 103, 4-((3-(4-(6-((6-acetyl-8-cyclopentyl-5-methyl-7-oxo-7,8-dihydropyrido[2,3-d]pyrimidin-2-yl)amino)pyridin-3-yl)piperazin-1-yl)propyl)(methyl)amino)-2-(2,6-dioxopiperidin-3-yl) isoindoline-1,3-dione] | < 0.05 µM | 0.05 to 0.2 µM | > 60% | 0.05 to 0.2 µM | > 60% | dose-dependent inhibition of cell proliferation | – | – | –
16 | CC(=O)c1c(C)c2cnc(Nc3ccc(N4CCN(CCCNc5ccc(N6CCC(=O)NC6=O)cc5)CC4)cn3)nc2n(C2CCCC2)c1=O [Compound 105, 1-(4-((3-(4-(6-((6-acetyl-8-cyclopentyl-5-methyl-7-oxo-7,8-dihydropyrido[2,3-d]pyrimidin-2-yl)amino)pyridin-3-yl)piperazin-1-yl)propyl)amino)phenyl)dihydro-pyrimidine-2,4 (1H,3H)-dione] | < 0.05 µM | < 0.05 µM | > 80% | < 0.05 µM | > 80% | – | – | – | –
